# Data reported in PMC12015462, “Prioritization of novel anti-infective stilbene derivatives by combining metabolomic data organization and a stringent 3R-infection model in a knowledge graph” (RSC Advances, 2025).
# Where two headings read alike, the source gives them in different places.
# Tests used:
# Assay type in all cases: cell-based
# Mycobacterium marinum [1] = experiment: Infection assay: intracellular M. marinum growth (luminescence) in D. discoideum; settings: for activity at 0.411523 µM / activity at 1.23457 µM / activity at 3.7037 µM / activity at 11.1111 µM / activity at 33.3333 µM / activity at 100 µM: 72 h; for activity at 0.411523 µM: conc 0.411522634 uM; for activity at 1.23457 µM: conc 1.234567901 uM; for activity at 3.7037 µM: conc 3.703703704 uM; for activity at 11.1111 µM: conc 11.11111111 uM; for activity at 33.3333 µM: conc 33.33333333 uM; for activity at 100 µM: conc 100 uM; for IC50: interpolated between the two concentrations closest to residual growth 0.5, top concentration 100 μM
# Source text: (§1) Since fractions were not weighed individually, the injection mass was used to calculate an average mass per fraction and thus a nominal mass concentration.
# Dictyostelium discoideum = experiment: Infection assay: growth of the host amoeba D. discoideum (fluorescence) in infection; settings: for activity at 0.411523 µM / activity at 1.23457 µM / activity at 3.7037 µM / activity at 11.1111 µM / activity at 33.3333 µM / activity at 100 µM: 72 h; for IC50: read-out: IC50 Dd in infection (μM)
# Source text: as §1
# Mycobacterium marinum [2] = experiment: Anti-biotic assay: M. marinum growth in broth (luminescence); settings: for activity at 0.411523 µM / activity at 1.23457 µM / activity at 3.7037 µM / activity at 11.1111 µM / activity at 33.3333 µM / activity at 100 µM: 72 h
# Protocol: as §1
# Plating bacteria and compounds or fractions was performed analogously to the infection assay described above. Bacteria growth was monitored with the Agilent BioTek H1 plate reader by recording luminescence at 32 °C.
# The prepared plates were sealed and stored at 4 °C overnight. On the day of the experiment, nine 10 cm Petri dishes were infected (as described before) and grouped into three pools.
# [3] = vehicle control set at 1, read-out: mean normalized residual growth, Mm in infection
# [4] = vehicle control set at 1, read-out: median normalized residual growth, Mm in infection
# [5] = read-out: mean normalized residual growth, Dd in infection
# [6] = read-out: median normalized residual growth, Dd in infection
# [7] = read-out: mean (normalised M. marinum growth, Mm in broth)
# [8] = read-out: median (normalised M. marinum growth, Mm in broth)
SMILES,activity at 0.411523 µM (Mycobacterium marinum [1]; [3]) [%],activity at 0.411523 µM (Mycobacterium marinum [1]; [4]) [%],activity at 1.23457 µM (Mycobacterium marinum [1]; [3]) [%],activity at 1.23457 µM (Mycobacterium marinum [1]; [4]) [%],activity at 3.7037 µM (Mycobacterium marinum [1]; [3]) [%],activity at 3.7037 µM (Mycobacterium marinum [1]; [4]) [%],activity at 11.1111 µM (Mycobacterium marinum [1]; [3]) [%],activity at 11.1111 µM (Mycobacterium marinum [1]; [4]) [%],activity at 33.3333 µM (Mycobacterium marinum [1]; [3]) [%],activity at 33.3333 µM (Mycobacterium marinum [1]; [4]) [%],activity at 100 µM (Mycobacterium marinum [1]; [3]) [%],activity at 100 µM (Mycobacterium marinum [1]; [4]) [%],IC50 (Mycobacterium marinum [1]) [µM],activity at 0.411523 µM (Dictyostelium discoideum; [5]) [%],activity at 1.23457 µM (Dictyostelium discoideum; [5]) [%],activity at 3.7037 µM (Dictyostelium discoideum; [5]) [%],activity at 11.1111 µM (Dictyostelium discoideum; [5]) [%],activity at 33.3333 µM (Dictyostelium discoideum; [5]) [%],activity at 100 µM (Dictyostelium discoideum; [5]) [%],activity at 0.411523 µM (Dictyostelium discoideum; [6]) [%],also measured
"Oc1cc(O)cc([C@H]2c3c(O)cc(/C=C/c4ccc(O)cc4O)cc3O[C@@H]2c2ccc(O)cc2O)c1 (relative stereo) [Compound 10, (−)-Gnetumontanin A]",90.6,90.5,132,135,120,120,145,152,157,160,41.3,59.1,> 100,126,88.6,59.8,54.4,51.5,6.33,102,activity at 1.23457 µM (Dictyostelium discoideum; [6]): 97%; activity at 3.7037 µM (Dictyostelium discoideum; [6]): 90.5%; activity at 11.1111 µM (Dictyostelium discoideum; [6]): 84.7%; activity at 33.3333 µM (Dictyostelium discoideum; [6]): 80.4%; activity at 100 µM (Dictyostelium discoideum; [6]): 76.2%; IC50 (Dictyostelium discoideum): > 100 µM; activity at 0.411523 µM (Mycobacterium marinum [2]; [7]): 111%; activity at 1.23457 µM (Mycobacterium marinum [2]; [7]): 103%; activity at 3.7037 µM (Mycobacterium marinum [2]; [7]): 95.3%; activity at 11.1111 µM (Mycobacterium marinum [2]; [7]): 96.3%; activity at 33.3333 µM (Mycobacterium marinum [2]; [7]): 99.7%; activity at 100 µM (Mycobacterium marinum [2]; [7]): 90%; activity at 0.411523 µM (Mycobacterium marinum [2]; [8]): 116%; activity at 1.23457 µM (Mycobacterium marinum [2]; [8]): 103%; activity at 3.7037 µM (Mycobacterium marinum [2]; [8]): 95.2%; activity at 11.1111 µM (Mycobacterium marinum [2]; [8]): 96.3%; activity at 33.3333 µM (Mycobacterium marinum [2]; [8]): 97.6%; activity at 100 µM (Mycobacterium marinum [2]; [8]): 91%
"Oc1ccc(/C=C/c2cc(O)c3c(c2)O[C@@H](c2ccc(O)cc2)[C@@H]3c2cc(O)c3c(c2)O[C@H](c2ccc(O)cc2)[C@H]3c2cc(O)cc(O)c2)cc1 [Compound 6, (−)-Gnetin E]",165,154,202,184,196,172,169,155,98.2,95.4,46.3,49.1,66.7,119,116,112,114,95.3,35.6,93.6,activity at 1.23457 µM (Dictyostelium discoideum; [6]): 89.2%; activity at 3.7037 µM (Dictyostelium discoideum; [6]): 92%; activity at 11.1111 µM (Dictyostelium discoideum; [6]): 88.5%; activity at 33.3333 µM (Dictyostelium discoideum; [6]): 86.1%; activity at 100 µM (Dictyostelium discoideum; [6]): 56.8%; IC50 (Dictyostelium discoideum): > 100 µM; activity at 0.411523 µM (Mycobacterium marinum [2]; [7]): 134%; activity at 1.23457 µM (Mycobacterium marinum [2]; [7]): 114%; activity at 3.7037 µM (Mycobacterium marinum [2]; [7]): 113%; activity at 11.1111 µM (Mycobacterium marinum [2]; [7]): 114%; activity at 33.3333 µM (Mycobacterium marinum [2]; [7]): 118%; activity at 100 µM (Mycobacterium marinum [2]; [7]): 110%; activity at 0.411523 µM (Mycobacterium marinum [2]; [8]): 135%; activity at 1.23457 µM (Mycobacterium marinum [2]; [8]): 109%; activity at 3.7037 µM (Mycobacterium marinum [2]; [8]): 114%; activity at 11.1111 µM (Mycobacterium marinum [2]; [8]): 114%; activity at 33.3333 µM (Mycobacterium marinum [2]; [8]): 119%; activity at 100 µM (Mycobacterium marinum [2]; [8]): 110%; IC50 (Mycobacterium marinum [2]; read-out: IC50 Mm in broth (μM)): > 100 µM
